The text below walks through data of US9339503B2, “Tetrahydro-quinazolinone derivatives as TANK and PARP inhibitors” (MERCK PATENT GMBH, priority 2012, dated 2016).

In general, IC50 refers to the point on the concentration scale where inhibition reaches its midpoint.

Bounds are passed on as bounds.

The target in experiment [1] is T1, GST-tagged Tnks-2 (873-1166 aa) (Homo sapiens, UniProt Q9H2K2).
T1 construct: GST-tagged Tnks-2 (873-1166 aa, prepared in-house); made in house
Nature of the experiment: TNKS 2 activity ELISA (autoparsylation assay). In kind it is biochemical. Conditions: read-out: IC50 tankyrase 2 (ELISA assay). As for the experimental part: (§1) Biochemical Activity Testing of TNKS 1 and 2: Activity ELISA (Autoparsylation Assay)
(§2) For analysis of autoparsylation activity of TNKS 1 and 2 an activity ELISA was performed: In the first step GST tagged TNKS was captured on a Glutathione coated plate. Then the activity assay with biotinylated NAD was performed in the absence/presence of the compounds. During the enzymatic reaction GST tagged TNKS transferred biotinylated ADP-ribose to itself from biotinylated NAD as co-substrate. For the detection streptavidin-HRP conjugate was added that bound to the biotinylated TNKS and was thereby captured to the plates. The amount of biotinylated resp autoparsylated TNKS was detected with a luminescence substrate for HRP. The level of the luminescence signal correlated directly with the amount of autoparsylated TNKS and therefore with activity of TNKS.
(§3) The activity ELISA was performed in 384 well Glutathione coated microtiter plates (Express capture Glutathione coated plate, Biocat, Heidelberg, Germany). The plates were pre-equilibrated with PBS. Then the plates were incubated with 50 μl 20 ng/well GST-tagged Tnks-1 (1023-1327 aa, prepared in-house), respectively GST-tagged Tnks-2 (873-1166 aa, prepared in-house) in assay buffer (50 mM HEPES, 4 mM Mg-chloride, 0.05% Pluronic F-68, 2 mM DTT, pH 7.7) overnight at 4° C. The plates were washed 3 times with PBS-Tween-20. The wells were blocked by incubation at room temperature for 20 minutes with 50 μl blocking buffer (PBS, 0.05% Tween-20, 0.5% BSA). Afterwards the plates were washed 3 times with PBS-Tween-20. The enzymatic reaction was performed in 50 μl reaction solution (50 mM HEPES, 4 mM Mg-chloride, 0.05% Pluronic F-68, 1.4 mM DTT, 0.5% DMSO, pH 7.7) with 10 μM bio-NAD (Biolog, Life science Inst., Bremen, Germany) as co-substrate in the absence or presence of the test compound (10 dilution concentrations) for 1 hour at 30° C. The reaction was stopped by 3 times washing with PBS-Tween-20. For the detection 50 μl of 20 ng/μl Streptavidin, HRP conjugate (MoBiTec, Göttingen, Germany) in PBS/0.05% Tween-20/0.01% BSA were added and the plates were incubated for 30 minutes at room temperature. After three times washing with PBS-Tween-20 50 μl of SuperSignal ELISA Femto Maximum sensitivity substrate solution (ThermoFisherScientific (Pierce), Bonn, Germany) were added. Following a 1 minute incubation at room temperature luminescence signals were measured with an Envision multimode reader (Perkin Elmer LAS Germany GmbH) at 700 nm. The full value used was the inhibitor-free reaction. The pharmacological zero value used was XAV-939 (Tocris) in a final concentration of 5 μM. The inhibitory values (IC50) were determined using either the program Symyx Assay Explorer® or Condosseo® from GeneData.
On the technique in general: An ELISA detects its analyte on a solid surface through an enzyme-linked reagent.

The target of experiment [2] is T2, GST-tagged Tnks-1 (1023-1327 aa) (Homo sapiens, UniProt O95271).
T2 construct: GST-tagged Tnks-1 (1023-1327 aa, prepared in-house); made in house
Put plainly: TNKS 1 activity ELISA (autoparsylation assay). The class given is biochemical. Conditions: read-out: IC50 tankyrase 1 (ELISA assay). How it is done:
as §1, §2, §3

Experiment [3] has as its target T3, GST-tagged Tankyrase-2 (873-1166 aa) (Homo sapiens, UniProt Q9H2K2).
T3 construct: GST-tagged Tankyrase-2 (873-1166 aa)
Nature of the experiment: Tankyrase 2 autoparsylation assay (HTRF enzyme assay). In kind it is biochemical. How it is done:
(§4) The autoparsylation assay was run in two steps: the enzymatic reaction in which GST-tagged Tankyrase-1, resp Tankyrase-2 transferred biotinylated ADP-ribose to itself from biotinylated NAD as co-substrate and the detection reaction where a time resolved FRET between cryptate labelled anti-GST bound to the GST tag of the enzyme and Xlent® labelled-streptavidin bound the biotin-parsylation residue was analysed. The autoparsylation activity was detectable directly via the increase in HTRF signal.
(§5) The autoparsylation assay was performed as 384-well HTRF® (Cisbio, Codolet, France) assay format in Greiner low volume nb 384-well microtiter plates and was used for high throughput screen. 250 nM GST-tagged Tankyrase-1 (1023-1327 aa), respectively about 250 nM GST-tagged Tankyrase-2 (873-1166 aa) and 5 μM bio-NAD (Biolog, Life science Inst., Bremen, Germany) as co-substrate were incubated in a total volume of 5 μl (50 mM HEPES, 4 mM Mg-chloride, 0.05% Pluronic F-68, 1.4 mM DTT, 0.5% DMSO, pH 7.7) in the absence or presence of the test compound (10 dilution concentrations) for 90 min at 30° C. The reaction was stopped by the addition of 1 μl 50 mM EDTA solution. 2 μl of the detection solution (1.6 μM SA-Xlent® (Cisbio, Codolet, France), 7.4 nM Anti-GST-K® (Eu-labelled anti-GST, Cisbio, Codolet, France) in 50 mM HEPES, 800 mM KF, 0.1% BSA, 20 mM EDTA, 0.1% CHAPS, pH 7.0) were added. After 1 h incubation at room temperature the HTRF was measured with an Envision multimode reader (Perkin Elmer LAS Germany GmbH) at excitation wavelength 340 nm (laser mode) and emission wavelengths 615 nm and 665 nm. The ratio of the emission signals was determined. The full value used was the inhibitor-free reaction. The pharmacological zero value used was XAV-939 (Tocris) in a final concentration of 5 μM. The inhibitory values (IC50) were determined using either the program Symyx Assay Explorer® or Condosseo® from GeneData.
(In general: In TR-FRET formats the signal depends on donor and acceptor labels being close together.)

A further experiment has as its system tankyrase 1/2. Nature of the experiment: Measurement of cellular inhibition of tankyrase (Axin2 level, Luminex based assay, DLD1 cells). Conditions: 24 hours, increase of Axin2 level, read-out: EC50 tankyrase 1/2 (cell assay). As for the experimental part: Measurement of Cellular Inhibition of Tankyrase
Since Tankyrases have been described to modulate cellular level of Axin2 (Huang et al., 2009; Nature) the increase of Axin2 level is used as read-out for determination of cellular inhibition of Tankyrases in a Luminex based assay.
Cells of the colon carcinoma cell line DLD1 are plated in 96 well plates with 1.5×10^4 cells per well. Next day, cells are treated with a serial-dilution of test compound in seven steps as triplicates with a final DMSO concentration of 0.3%. After 24 hours, cells are lysed in lysis buffer (20 mM Tris/HCl pH 8.0, 150 mM NaCl, 1% NP40, 10% Glycerol) and lysates are cleared by centrifugation through a 96 well filter plate (0.65 μm). Axin2 protein is isolated from cell lysates by incubation with a monoclonal anti-Axin2 antibody (R&D Systems #MAB6078) that is bound to fluorescent carboxybeads. Then, bound Axin2 is specifically detected with a polyclonal anti-Axin2 antibody (Cell Signaling #2151) and an appropriate PE-fluorescent secondary antibody. The amount of isolated Axin2 protein is determined in a Luminex^200 machine (Luminex Corporation) according to the manufacturer's instruction by counting 100 events per well. […] For analysis, the obtained data were normalized against the untreated solvent control and fitted for determination of the EC50 values using the Assay Explorer software (Accelrys).

In experiment [4] the target is T4, GST-tagged Tankyrase-1 (1023-1327 aa) (Homo sapiens, UniProt O95271).
T4 construct: GST-tagged Tankyrase-1 (1023-1327 aa)
Put plainly: Tankyrase 1 autoparsylation assay (HTRF enzyme assay). In kind it is biochemical. As for the experimental part: as §4, §5

T3 sequence (Q9H2K2 873-1166): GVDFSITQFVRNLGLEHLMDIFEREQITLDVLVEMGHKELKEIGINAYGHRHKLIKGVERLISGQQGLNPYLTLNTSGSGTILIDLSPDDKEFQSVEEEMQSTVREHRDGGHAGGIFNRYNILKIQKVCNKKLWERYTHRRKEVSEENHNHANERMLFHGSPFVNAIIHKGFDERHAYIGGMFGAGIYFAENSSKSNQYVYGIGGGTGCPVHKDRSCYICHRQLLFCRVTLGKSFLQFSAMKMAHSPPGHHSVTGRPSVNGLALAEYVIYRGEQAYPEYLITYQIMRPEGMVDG
T1 sequence (Q9H2K2 873-1166): as above
T4 sequence (O95271 1023-1327): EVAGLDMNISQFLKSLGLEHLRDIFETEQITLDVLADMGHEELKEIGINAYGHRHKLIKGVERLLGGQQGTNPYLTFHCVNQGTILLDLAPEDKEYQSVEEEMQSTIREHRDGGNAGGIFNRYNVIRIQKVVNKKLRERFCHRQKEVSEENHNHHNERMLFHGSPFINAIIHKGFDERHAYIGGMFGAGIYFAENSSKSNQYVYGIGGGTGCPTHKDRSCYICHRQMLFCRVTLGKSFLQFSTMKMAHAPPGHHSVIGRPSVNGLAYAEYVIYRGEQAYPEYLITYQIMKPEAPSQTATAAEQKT
T2 sequence (O95271 1023-1327): as above

As for `COc1ccc(C2CCN(c3nc4c(c(=O)[nH]3)CCCC4)CC2)cc1` [Compound A55, 2-[4-(4-methoxy-phenyl)-piperidin-1-yl]-5,6,7,8-tetrahydro-3H-quinazolin-4-one], the IC50 in experiment [1] is < 300 nM; in experiment [2], < 300 nM; in experiment [3] it was 300 to 3000 nM; in experiment [4] it was < 300 nM. Also, the EC50 in the experiment on tankyrase 1/2 lay within 3000 to 50000 nM.

`O=c1[nH]c(N2CCN(c3cccc(Cl)c3)CC2)nc2c1CCCC2` [Compound A11, 2-[4-(3-Chlorophenyl)piperazin-1-yl]-5,6,7,8-tetrahydro-3H-quinazolin-4-one]: the IC50 is < 300 nM in experiment [1], < 300 nM in experiment [2], 300 to 3000 nM in experiment [3] and 300 to 3000 nM in experiment [4]. In addition, in the experiment with tankyrase 1/2, the EC50 lay in the range of 300 to 3000 nM.

Regarding `COc1ccc(N2CCN(c3nc4c(c(=O)[nH]3)CCCC4)CC2)c(OC)c1` [Compound A37, 2-[4-(2,4-dimethoxyphenyl)piperazin-1-yl]-5,6,7,8-tetrahydro-3H-quinazolin-4-one], the IC50 is < 300 nM in experiment [1], < 300 nM in experiment [2], 300 to 3000 nM in experiment [3] and 300 to 3000 nM in experiment [4]. The EC50 in the experiment on tankyrase 1/2 is 300 to 3000 nM.

For the molecule `O=c1[nH]c(N2CCN(c3ccc(F)cc3Cl)CC2)nc2c1CCCC2` [Compound A39, 2-[4-(2-chloro-4-fluoro-phenyl)piperazin-1-yl]-5,6,7,8-tetrahydro-3H-quinazolin-4-one], the IC50 in experiment [1] was < 300 nM; in experiment [2], < 300 nM; in experiment [3], 300 to 3000 nM; in experiment [4] it was 300 to 3000 nM. In the experiment with tankyrase 1/2, the EC50 was in the range of 300 to 3000 nM.

Turning to `O=c1[nH]c(N2CCN(c3ccc(Cl)cc3)CC2)nc2c1CCCC2` [Compound A8, 2-[4-(4-Chlorophenyl)piperazin-1-yl]-5,6,7,8-tetrahydro-3H-quinazolin-4-one], the IC50 in experiment [1] was < 300 nM; in experiment [2], < 300 nM; in experiment [3], 300 to 3000 nM; in experiment [4] it was 300 to 3000 nM. The EC50 in the experiment with tankyrase 1/2 fell in the range of 3000 to 50000 nM.

In the case of `O=c1[nH]c(N2CCC(C(F)(F)F)CC2)nc2c1CCCC2` [Compound A10, 2-(4-Trifluoromethylpiperidin-1-yl)-5,6,7,8-tetrahydro-3H-quinazolin-4-one], the IC50 is < 300 nM in experiment [1], < 300 nM in experiment [2], 300 to 3000 nM in experiment [3] and 300 to 3000 nM in experiment [4]. Further, in the experiment with tankyrase 1/2, the EC50 is 3000 to 50000 nM.

Consider `COc1ccccc1C1CCN(c2nc3c(c(=O)[nH]2)CCCC3)CC1` [Compound A54, 2-[4-(2-methoxy-phenyl)-piperidin-1-yl]-5,6,7,8-tetrahydro-3H-quinazolin-4-one], for which the IC50 was < 300 nM in experiment [1], < 300 nM in experiment [2], 300 to 3000 nM in experiment [3] and < 300 nM in experiment [4]. Moreover, the EC50 in the experiment with tankyrase 1/2 was in the range of 300 to 3000 nM.

`O=c1[nH]c(N2CCN(c3cccc(F)c3)CC2)nc2c1CCCC2` [Compound A5, 2-[4-(3-Fluorophenyl)piperazin-1-yl]-5,6,7,8-tetrahydro-3H-quinazolin-4-one]: the IC50 in experiment [1] was < 300 nM; in experiment [2], < 300 nM; in experiment [3] it was 300 to 3000 nM; in experiment [4] it was 300 to 3000 nM. The EC50 with tankyrase 1/2 was in the range of 3000 to 50000 nM.

For `COc1ccc(N2CCN(c3nc4c(c(=O)[nH]3)CCCC4)CC2)cn1` [Compound A51, 2-[4-(6-methoxy-3-pyridyl)piperazin-1-yl]-5,6,7,8-tetrahydro-3H-quinazolin-4-one], the IC50 in experiment [1], in experiment [2], in experiment [3] and in experiment [4] was 300 to 3000 nM each time. Further, the EC50 with tankyrase 1/2 lay within 300 to 3000 nM.

For `O=c1[nH]c(N2CCN(c3ccccc3C(F)(F)F)CC2)nc2c1CCCC2` [Compound A56, 2-[4-(2-trifluoromethyl-phenyl)-piperazin-1-yl]-5,6,7,8-tetrahydro-3H-quinazolin-4-one], the IC50 was < 300 nM in experiment [1], < 300 nM in experiment [2], 300 to 3000 nM in experiment [3] and < 300 nM in experiment [4]. For the same molecule, the EC50 with tankyrase 1/2 lay within 300 to 3000 nM.
